Experimental findings from US10570131B2, “Heterocyclic compounds and their use in preventing or treating bacterial infections” (MUTABILIS, priority 2015, dated 2020) are described below.

What all share (format): cell-based
In assay [1] the test system is E. coli UFR52. The assay can be described thus: MIC of ceftazidime alone and in combination with compounds (synergy), broth microdilution. The conditions noted are these: MIC of ceftazidime with compound fixed at 4 μg/mL; strain UFR52 (TEM-1, SHV-12, IMP-8).
The subject of a further assay is E. cloacae UFR38. The assay is described as above. The conditions noted are these: MIC of ceftazidime with compound fixed at 4 μg/mL; strain UFR38 (CTX-M-15, NDM-1).
For another assay, the system named is K. pneumoniae UFR77. The assay is described as follows: MIC of compounds alone, broth microdilution. The note with it: Klebsiella pneumoniae; strain UFR77 (CMY-2); read-out: MIC compounds of the invention alone. The method, boiled down:
(§1)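 Visual endpoint: no growth after 16-20 h at 35° C in ambient air defines MIC. Test medium was cation-adjusted Mueller-Hinton broth seeded with 5×10^5 cfu/mL log-phase bacteria, compounds given singly or alongside ceftazidime.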

The subject of another assay is P. aeruginosa UFR90. The assay can be described thus: MIC of compounds alone, broth microdilution. The conditions noted are these: Pseudomonas aeruginosa, UFR90, read-out: MIC compounds of the invention alone. The method, boiled down: as §1
The subject of another assay is K. pneumoniae 200047. The assay can be described thus: MIC of compounds alone, broth microdilution. The note with it: Klebsiella pneumoniae, 200047, read-out: MIC compounds of the invention alone. The method, boiled down:
as §1

The subject of the next assay is K. oxytoca UFR21. The assay is described as follows: MIC of compounds alone, broth microdilution. The note with it: Klebsiella oxytoca, UFR21, read-out: MIC compounds of the invention alone. The gist of the method: as §1
The test system of the next assay is C. murliniae 210102. The assay can be described thus: MIC of compounds alone, broth microdilution. The note with it: strain 210102 (VIM-4); read-out: MIC compounds of the invention alone. The gist of the method: as §1
For a further assay, the system named is P. aeruginosa UFR47. The assay can be described thus: MIC of compounds alone, broth microdilution. The note with it: Pseudomonas aeruginosa; strain UFR47 (VIM-1); read-out: MIC compounds of the invention alone. The method, boiled down: as §1
A further assay has as its system K. pneumoniae 160143. The assay can be described thus: MIC of compounds alone, broth microdilution. The note with it: Klebsiella pneumoniae, 160143, read-out: MIC compounds of the invention alone. The gist of the method:
as §1

In another assay the test system is K. pneumoniae UFR68. The assay can be described thus: MIC of compounds alone, broth microdilution. The note with it: Klebsiella pneumoniae, UFR68, read-out: MIC compounds of the invention alone. The gist of the method: as §1
The test system of another assay is K. pneumoniae UFR24. The assay can be described thus: MIC of compounds alone, broth microdilution. The note with it: Klebsiella pneumoniae, UFR24, read-out: MIC compounds of the invention alone. The gist of the method:
as §1

The test system of the next assay is E. cloacae 260508. The assay can be described thus: MIC of compounds alone, broth microdilution. The note with it: Enterobacter cloacae, 260508, read-out: MIC compounds of the invention alone. The method, boiled down:
as §1

The test system of the next assay is P. aeruginosa UFR59. The assay can be described thus: MIC of compounds alone, broth microdilution. The note with it: Pseudomonas aeruginosa; strain UFR59 (IMP-29); read-out: MIC compounds of the invention alone. The method, boiled down:
as §1

Another assay relates to E. coli UFR61O. The assay can be described thus: MIC of compounds alone, broth microdilution. The conditions noted are these: Escherichia coli, UFR61O, read-out: MIC compounds of the invention alone. The gist of the method:
as §1

Assay [2] deals with E. coli UFR52. The assay can be described thus: MIC of compounds alone, broth microdilution. The note with it: Escherichia coli, UFR52, read-out: MIC compounds of the invention alone. The method, boiled down:
as §1

In a further assay the test system is E. coli UFR18. The assay can be described thus: MIC of compounds alone, broth microdilution. The note with it: Escherichia coli; strain UFR18 (CTX-M-15, OXA-204); read-out: MIC compounds of the invention alone. The method, boiled down:
as §1

A further assay deals with P. aeruginosa UFR48. The assay can be described thus: MIC of compounds alone, broth microdilution. The note with it: Pseudomonas aeruginosa; strain UFR48 (VIM-2); read-out: MIC compounds of the invention alone. The gist of the method:
as §1

The subject of a further assay is P. aeruginosa UFR92. The assay is described as follows: MIC of compounds alone, broth microdilution. The note with it: Pseudomonas aeruginosa, UFR92, read-out: MIC compounds of the invention alone. The gist of the method: as §1
Another assay concerns E. cloacae UFR85. The assay can be described thus: MIC of compounds alone, broth microdilution. The conditions noted are these: Enterobacter cloacae, UFR85, read-out: MIC compounds of the invention alone. The method, boiled down: as §1
A further assay relates to E. coli UFR74. The assay can be described thus: MIC of compounds alone, broth microdilution. The conditions noted are these: Escherichia coli, UFR74, read-out: MIC compounds of the invention alone. The method, boiled down:
as §1

For the next assay, the system named is P. aeruginosa UFR93. The assay is described as follows: MIC of compounds alone, broth microdilution. The note with it: Pseudomonas aeruginosa, UFR93, read-out: MIC compounds of the invention alone. The method, boiled down: as §1
The subject of the next assay is P. aeruginosa UFR35. The assay can be described thus: MIC of compounds alone, broth microdilution. The conditions noted are these: Pseudomonas aeruginosa; strain UFR35 (OXA-23); read-out: MIC compounds of the invention alone. The method, boiled down: as §1

Where a name gives a salt, the structure may show the parent alone. Where only a bound is given, the exact number is not on record here.

Regarding `NC[C@@H]1CC(=NOCC(N)=O)[C@@H]2CN1C(=O)N2OS(=O)(=O)O` (mixture of isomers) [Example 5, sodium and 2,2,2-trifluroacetate [(2S,5S)-4-(2-amino-2-oxo-ethoxy)imino-2-(azaniumylmethyl)-7-oxo-1,6-diazabicyclo[3.2.1]octan-6-yl] sulfate], the “MIC, combination of CAZ and compounds of the invention at 4 μg/mL” value with E. coli UFR52 [1] was at most 0.25 mg/L; with E. cloacae UFR38 it was under 0.25 mg/L. Moreover, the MIC in the assay on K. pneumoniae UFR77 was over 32 mg/L; with P. aeruginosa UFR90, 1 mg/L; in the assay on K. pneumoniae 200047 it was over 32 mg/L; with K. oxytoca UFR21, over 32 mg/L; with C. murliniae 210102, over 32 mg/L; in the assay with P. aeruginosa UFR47, 2 mg/L. Further, the MIC in the assay with K. pneumoniae 160143 was over 32 mg/L; in the assay with K. pneumoniae UFR68, over 32 mg/L; in the assay on K. pneumoniae UFR24, over 32 mg/L; with E. cloacae 260508 it was 32 mg/L; in the assay with P. aeruginosa UFR59, 4 mg/L; with E. coli UFR61O, 0.5 mg/L. Further, the MIC in the assay with E. coli UFR52 [2] was 8 mg/L; with E. coli UFR18, 0.25 mg/L; with P. aeruginosa UFR48, 2 mg/L; in the assay with P. aeruginosa UFR92, 2 mg/L; in the assay with E. cloacae UFR85 it was over 32 mg/L; in the assay on E. coli UFR74, over 32 mg/L. The MIC is 4 mg/L in the assay on P. aeruginosa UFR93 and 1 mg/L with P. aeruginosa UFR35.
Consider `NC[C@@H]1CC(=O)[C@@H]2CN1C(=O)N2OS(=O)(=O)O` [Example 6, 2,2,2-trifluroacetate and sodium [(2S,5S)-2-(azaniumylmethyl)-4,7-dioxo-1,6-diazabicyclo[3.2.1]octan-6-yl] sulfate], for which the “MIC, combination of CAZ and compounds of the invention at 4 μg/mL” value with E. coli UFR52 [1] and in the assay on E. cloacae UFR38 was under 0.25 mg/L throughout. Further, the MIC in the assay with K. pneumoniae UFR77 is over 32 mg/L; in the assay with P. aeruginosa UFR90 it was 4 mg/L; in the assay on K. pneumoniae 200047, over 32 mg/L; in the assay with K. oxytoca UFR21, over 32 mg/L; with C. murliniae 210102, over 32 mg/L; in the assay with P. aeruginosa UFR47 it was 4 mg/L. Besides, the MIC in the assay on K. pneumoniae 160143 was over 32 mg/L; with K. pneumoniae UFR68 it was over 32 mg/L; in the assay on K. pneumoniae UFR24, over 32 mg/L; in the assay on E. cloacae 260508 it was over 32 mg/L; in the assay on P. aeruginosa UFR59 it was 16 mg/L; in the assay on E. coli UFR61O it was 4 mg/L. Besides, the MIC was 2 mg/L in the assay with E. coli UFR52 [2]; 1 mg/L in the assay with E. coli UFR18; 8 mg/L with P. aeruginosa UFR48; 4 mg/L in the assay with P. aeruginosa UFR92; over 32 mg/L in the assay with E. cloacae UFR85; over 32 mg/L in the assay with E. coli UFR74. Also, the results for the MIC with P. aeruginosa UFR93 and in the assay with P. aeruginosa UFR35 were 8 mg/L and 4 mg/L, respectively.
